Assay results from ChEMBL document CHEMBL1126395, “The synthesis of conformationally-restricted diacyl glycerol analogues” (1992).
The source made the active and inactive calls. The rule behind the calls is not given here.

Tests used:
HL-60 [1] = experiment: Compound was tested for the inhibition of the growth of HL60 cells at a concentration 10E-4 M; NS no significant affect is observed; format: functional, cell-based; conditions: Homo sapiens
[2] = biological target: Protein kinase C (PKC) (Rattus norvegicus) (UniProt P05696+P68403+P09216+P63319+P09215+Q64617+Q9WTQ0+P09217); experiment: Antagonist activity against protein Kinase C; format: functional
HL-60 [3] = experiment: Compound was tested for the inhibition of the growth of HL60 cells at a concentration 10E-4 M; reduction of growth was observed; format: functional; conditions: Homo sapiens

SMILES	Activity (HL-60 [1])	Activity [2]	inhibition at 100 µM (HL-60 [3]) [%]
CCCCCCCOC(=O)O[C@H]1OC(=O)C[C@@H]1O	inactive	–	–
CCCCCCCOC(=O)O[C@H]1CC(=O)O[C@@H]1CO	–	inactive	20
CCCCCCCOC(=O)O[C@H]1OC(=O)[C@H](O)[C@@H]1OC(=O)OCCCCCCC	–	inactive	–
CCCCCCCOC(=O)O[C@H]1OC(=O)[C@H](O)[C@@H]1O	–	inactive	–
CCCCCCCOC(=O)O[C@@H]1[C@@H](CO)OC(=O)[C@@H]1OC(=O)OCCCCCCC	–	inactive	–
